Structures can show the parent of a compound that is named as a salt.
Assays:
Rat model of AMI [1] = experiment: Rat model of AMI by ligating of coronary artery, PPD and MPD by pouring to stomach (Example 4); assay type: in vivo, Wistar rats; settings: for Death rate in operation / Infarction size/whole heart size (%): experiment 2 (repeated), 40 mg/kg by pouring to stomach
Method: (§1) Methods: Rat model of AMI was established by ligating of coronary artery.
(§2) Rat was anaesthetized by 3.5% chloral hydrate (10 mL/kg, by weight), then linking to electric-respirator, scraping off the fur of chest, opening thoracic cavity, exposing cardiac pericardium and then ligating the root of the left anterior descending of coronary artery (LADCA).
12 rats were randomly divided into model control group (physiological saline 5 mL/kg by pouring down throat) and PPD treated group (40 mg/5 mL/kg, by pouring to stomach), 6 rats per group. Rats were administrated one time after ligating, then be executed 24 hours later.
24 rats were randomly divided into model control group (physiological saline 5 mL/kg by pouring to stomach), MPD treated group (40 mg/5 mL/kg, by pouring to stomach) and PPD treated group (40 mg/5 mL/kg, by pouring to stomach). Rats were administrated one time after ligating, then be executed 24 hours later.
(§3) Determining the scope of miocardial infarction (N-BT staining method): quickly taking out the heart from the executed animal, then washing by physiologic saline and dewatering with filter paper, the heart was cut into 5 pieces uniformly from apex of heart to ligating thread, then the pieces were put into N-BT staining solution, keeping in common temperature, avoiding light in 2 minutes. Then measuring the size of each slice, and the size of miocardial infarction (non-staining zone with N-BT) by colorful multimedia patho-image analytical system, total area of ventricular muscle, total area of infarction of ventricular muscle, and the ratio of miocardial infarction size relative to the size of ventricles were measured respectively.

Rat model of AMI [2] = experiment: Rat model of AMI by ligating of coronary artery, MPD, PPD and MPD+PPD mixture (Example 5); assay type: in vivo, Wistar rats; settings: 40 mg/kg by pouring to stomach, one time after ligating, 24 h, relative to size of ventricles
Method: as §1, §2
33 rats were randomly divided into model control group (physiological saline 5 mL/kg by pouring down throat), MPD treated group (40 mg/5 mL/kg, by pouring to stomach), PPD treated group (40 mg/5 mL/kg, by pouring to stomach) and MPD+PPD treated group (40 mg/5 mL/kg, by pouring to stomach). […]
as §3

[3] = test system: acute miocardial infarction caused by ligation of coronary artery; experiment: Acute miocardial infarction by coronary artery ligation in rats, MPD injection (Example 3); assay type: in vivo, Wistar rats; settings: rat, n=10
Method: (§4) Methods: Applying the model of acute miocardial infarction caused by ligation of coronary artery, detecting miocardial infarction scope, coronary arterial flow and myocardial consumption of oxygen to observe the curative effect of MPD injection.
as §2
2.2.1 Preliminary experiment: twenty rats were randomly divided into model control group (injecting physiological saline 3 mL/kg by vena caudalis) and MPD treated group (40 mg/kg, i.v), ten rats per group.
2.2.2 Repeated experiment: fifty rats were randomly divided into model control group (injecting physiological saline 3 ml/kg by vena caudalis), Di'ao Xinxuekang group (administering 40 mg/kg by intragastric administration), MPD dose-intensive group (80 mg/kg by vena caudalis injection), MPD moderate dose group (40 mg/kg) and MPD low-dose group (20 mg/kg), ten rats per group. Rats were treated after 30 minutes of preparing model successfully, and were executed after 24 hours, and observing the results.
as §3, with “4” for “5”

[4] = test system: acute miocardial infarction caused by ligation of coronary artery; experiment: Acute miocardial infarction by coronary artery ligation in canines (Example 3); assay type: in vivo, Adult hybrid canines; settings: canine; for Infarction size/heart size (%) / Infarction size/ventricles size (%): n=2
Method: as §4
Canine was anaesthetized by 3% Pentobarbital Sodium (1 mL/kg), opening the chest, exposing the heart and making up a arcula cordis bed; leading on an epicardial electrode and then ligating the root of the left anterior descending of coronary artery (LADCA). Venous cannula on thigh was administered to inject drug, arterial cannula on cervical and pipe from external jugular vein to vena coronaria sinus were administered, thus the blood was obtained separately and AtV oxygen content were measured.
2.2.3 Six canines were randomly divided into model control group (injecting physiological saline 1 mL/1 kg by femoral vein), positive control group (Diltiazem Hydrochloride solution 0.5 mg/kg) and MPD treated group (20 mg/kg by femoral vein), two canines per group. The data of N-ST, Σ-ST, the blood oxygen content of vena coronaria sinus and artery, and the scope of miocardial infarction of pro-administration were collected after administration at once, and 5, 15, 30, 60, 120, 180 minutes after administration.
Epicardial electrogram: recording the change of N-ST and Σ-ST.
as §3, with “4” for “5”

[5] = 20 mg/kg by femoral vein, 20 mg/kg

Structure (SMILES)	miocardial infarction size/ventricular size (%) (Rat model of AMI [1]; experiment 1, 40 mg/kg by pouring to stomach, one time after ligating, 24 h, n=6, 40 mg/kg)	Death rate in operation (Rat model of AMI [1])	Infarction size/whole heart size (%) (Rat model of AMI [1]; one time after ligating, 24 h)	infarct size (IS) (%) (Rat model of AMI [2])	miocardial infarction size/ventricular size (%) ([3]; preliminary experiment, 40 mg/kg i.v., X ± SD, 40 mg/kg)	miocardial infarction size/ventricular size (%) ([3]; repeated experiment, dose-intensive 80 mg/kg by vena caudalis injection, 24 h)	miocardial infarction size/ventricular size (%) ([3]; repeated experiment, low-dose 20 mg/kg by vena caudalis injection, 24 h, 20 mg/kg)	miocardial infarction size/ventricular size (%) ([3]; repeated experiment, moderate dose 40 mg/kg by vena caudalis injection, 24 h, 40 mg/kg)	N-ST (epicardial electrogram) comparing with control group ([4]; 20 mg/kg by femoral vein, FIG. 4)	flow of aeteria coronaria comparing with control group ([4]; 20 mg/kg by femoral vein, FIG. 6)	miocardial consumption of oxygen (MCO) comparing with control group ([4]; 20 mg/kg by femoral vein, FIG. 7)	Infarction size/heart size (%) [4, 5]	Infarction size/ventricles size (%) [4, 5]	Infarction size/heart size (%) ([4]; 0.5 mg/kg)	Infarction size/ventricles size (%) ([4]; 0.5 mg/kg)
CC1=C(CC[C@@H](C)CO[C@@H]2O[C@H](CO)[C@@H](O)[C@H](O)[C@H]2O)O[C@H]2C[C@H]3[C@@H]4CC=C5C[C@@H](O[C@@H]6O[C@H](CO)[C@@H](O[C@@H]7O[C@@H](C)[C@H](O)[C@@H](O)[C@H]7O)[C@H](O)[C@H]6O[C@@H]6O[C@@H](C)[C@H](O)[C@@H](O)[C@H]6O)CC[C@]5(C)[C@H]4CC[C@]3(C)[C@@H]12 [PPD, Pseudoprotodioscin]	36.25±7.20%	14.3% (1/7)	36.31 ± 1.90 %	36.31±1.90%	–	–	–	–	–	–	–	–	–	–	–
CO[C@]1(CC[C@@H](C)CO[C@@H]2O[C@H](CO)[C@@H](O)[C@H](O)[C@H]2O)O[C@H]2C[C@H]3[C@@H]4CC=C5C[C@@H](O[C@@H]6O[C@H](CO)[C@@H](O[C@@H]7O[C@@H](C)[C@H](O)[C@@H](O)[C@H]7O)[C@H](O)[C@H]6O[C@@H]6O[C@@H](C)[C@H](O)[C@@H](O)[C@H]6O)CC[C@]5(C)[C@H]4CC[C@]3(C)[C@H]2[C@@H]1C [MPD, Methylprotodioscin]	–	0% (0/8)	33.71 ± 6.73 %	36.24±3.74%	33.4±8.09%	30.62±9.46%	37.89±8.41%	32.32±6.92%	no significant difference	no significant difference	no significant difference	2.74±0.33%	7.30±0.97%	–	–
COc1ccc([C@@H]2Sc3ccccc3N(CCN(C)C)C(=O)[C@@H]2OC(C)=O)cc1 [Diltiazem Hydrochloride, reference compound]	–	–	–	–	–	–	–	–	–	–	–	–	–	1.81 ± 0.79 %	4.36 ± 1.15 %
